According to patent US12227496B2 (BRISTOL-MYERS SQUIBB COMPANY, priority 2019, dated 2025):

Molecular target: T1, human FXR (Homo sapiens, UniProt Q96RI1)
T1 construct: expressed in transfected cells; host or cells: HEK293 cells stably carrying a 5xGal4-response-element firefly luciferase reporter, transiently transfected with pcDNA3.1-Gal4-FXR
T1 sequence (Q96RI1 262-486 limits assumed): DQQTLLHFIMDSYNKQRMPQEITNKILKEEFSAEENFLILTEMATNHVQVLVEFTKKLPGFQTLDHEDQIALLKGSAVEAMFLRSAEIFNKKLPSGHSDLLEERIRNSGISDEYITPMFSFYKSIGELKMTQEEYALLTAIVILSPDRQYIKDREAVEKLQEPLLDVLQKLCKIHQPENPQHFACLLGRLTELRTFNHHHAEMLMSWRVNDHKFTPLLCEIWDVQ
Experiment: transient human FXR/Gal4-luciferase reporter assay
Assay type: cell-based
Conditions: Gal4-hFXR LBD fusion, luciferase reporter in HEK293 cells; response relative to 8 μM GW-4064
Experimental: A Gal4-hFXR fusion construct reporter system was used as the primary assay to characterize compound activity. A construct including 5 copies of the Gal4 promoter response element upstream of a firefly luciferase reporter cDNA was stably expressed in HEK293 cells. This reporter cell line was maintained in Dulbecco's Modified Eagle's medium (DMEM; Gibco) supplemented with 1% penicillin-streptomycin (P/S) solution, 500 μg/mL Zeocin and 10% charcoal/dextran-treated fetal bovine serum (cs-FBS) at 37° C. in a humidified 5% CO2 atmosphere. […] The day prior to transfection, the reporter cells in culture are detached from the plate with trypsin and plated into a T75 flask at a sufficient density to achieve approximately 90% confluence the next morning. […] The mixture is further diluted with 10 mL of a solution comprised of DMEM, 10% cs-FBS, and 1% P/S immediately prior to transferring to the cells. The maintenance culture media is aspirated from the cells and the final transfection mixture is added before the cells are incubated overnight at 37° C. in a humidified 5% CO2 atmosphere. This protocol can be scaled up, and the transiently transfected cells can be cryopreserved in an assay-ready format. For compound testing, 100 nL of the compounds (serial dilutions in DMSO) are dispensed with an Echo acoustic dispenser (Labcyte) into the wells of a Corning/Costar clear bottom 384-well white plate. The transfected cells are harvested, counted, and diluted such that 10-25,000 cells in 25 μL are plated into each well of the 384-well compound assay plate. The compound-treated cells are incubated overnight at 37° C. in a humidified 5% CO2 atmosphere. The next morning 25 μL of Steady-Glo (Promega) are added to each well of the plate, the mixture is incubated for 15 min. with shaking, and luminescence is measured on an Envision (Perkin Elmer) plate reader.

SMILES	EC50 [nM]
O=C(N1CCC(O)CC1)N(CC12CCC(c3nc(C4CC4)no3)(CC1)CC2)c1cccc(-c2nc(C3CC3)no2)c1 [Example 61, N-((4-(3-cyclopropyl-1,2,4-oxadiazol-5-yl)bicyclo[2.2.2]octan-1-yl)methyl)-N-(3-(3-cyclopropyl-1,2,4-oxadiazol-5-yl)phenyl)-4-hydroxypiperidine-1-carboxamide]	3670
CCOc1ncc(-c2cc(N(CC34CCC(c5noc(C(C)(F)F)n5)(CC3)CC4)C(=O)C3CCC(F)(F)CC3)ccc2F)cn1 [Example 106, N-((4-(5-(1,1-difluoroethyl)-1,2,4-oxadiazol-3-yl)bicyclo[2.2.2]octan-1-yl)methyl)-N-(3-(2-ethoxypyrimidin-5-yl)-4-fluorophenyl)-4,4-difluorocyclohexane-1-carboxamide]	406
Cc1nc2ccc(-c3cccc(N(CC45CCC(c6nc(C7CC7)no6)(CC4)CC5)C(=O)C4CCOCC4)c3)cc2s1 [Example 91, N-((4-(3-cyclopropyl-1,2,4-oxadiazol-5-yl)bicyclo[2.2.2]octan-1-yl)methyl)-N-(3-(2-methylbenzo[d]thiazol-6-yl)phenyl)tetrahydro-2H-pyran-4-carboxamide]	97
O=C(C1CCCCC1)N(CC12CCC(c3nc(C4CC4)no3)(CC1)CC2)c1cccc(-c2cnc(C3CCOCC3)o2)c1 [Example 34, N-((4-(3-cyclopropyl-1,2,4-oxadiazol-5-yl)bicyclo[2.2.2]octan-1-yl)methyl)-N-(3-(2-(tetrahydro-2H-pyran-4-yl)oxazol-5-yl)phenyl)cyclohexanecarboxamide]	212
Cc1nc2ccc(-c3cc(N(CC45CCC(c6noc(C(C)(F)F)n6)(CC4)CC5)C(=O)C4CCC(F)(F)CC4)ccc3F)cc2s1 [Example 108, N-((4-(5-(1,1-difluoroethyl)-1,2,4-oxadiazol-3-yl)bicyclo[2.2.2]octan-1-yl)methyl)-4,4-difluoro-N-(4-fluoro-3-(2-methylbenzo[d]thiazol-6-yl)phenyl)cyclohexane-1-carboxamide]	250
CCOc1ccc(-c2cc(N(CC34CCC(c5noc(C(C)(F)F)n5)(CC3)CC4)C(=O)C3CCC(O)(C(F)(F)F)CC3)ccc2F)cc1 (single isomer, unassigned) [Example 164, N-((4-(5-(1,1-difluoroethyl)-1,2,4-oxadiazol-3-yl)bicyclo[2.2.2]octan-1-yl)methyl)-N-(4′-ethoxy-6-fluoro-[1,1′-biphenyl]-3-yl)-4-hydroxy-4-(trifluoromethyl)cyclohexane-1-carboxamide]	271
CCc1noc(-c2cccc(N(C(=O)C3CCCCC3)C(C)C34CCC(c5nc(C)no5)(CC3)CC4)c2)n1 (single isomer, unassigned) [Example 71, N-(3-(3-ethyl-1,2,4-oxadiazol-5-yl)phenyl)-N-(1-(4-(3-methyl-1,2,4-oxadiazol-5-yl)bicyclo[2.2.2]octan-1-yl)ethyl)cyclohexanecarboxamide]	547
CC(F)(F)c1nc(C23CCC(CN(C(=O)C4CCC(F)(F)CC4)c4cccc(-c5cc(C6CC6)on5)c4)(CC2)CC3)no1 [Example 154, N-(3-(5-cyclopropylisoxazol-3-yl)phenyl)-N-((4-(5-(1,1-difluoroethyl)-1,2,4-oxadiazol-3-yl)bicyclo[2.2.2]octan-1-yl)methyl)-4,4-difluorocyclohexane-1-carboxamide]	57
CCOc1ccc(-c2cc(N(CC34CCC(c5nc(C(C)(C)C)no5)(CC3)CC4)C(=O)C3CCC(C)(O)CC3)ccc2F)cc1 (stereo not drawn) [Example 166, N-((4-(3-(tert-butyl)-1,2,4-oxadiazol-5-yl)bicyclo[2.2.2]octan-1-yl)methyl)-N-(4′-ethoxy-6-fluoro-[1,1′-biphenyl]-3-yl)-4-hydroxy-4-methylcyclohexane-1-carboxamide]	1080
